Measurements reported in publication PMC12679602 (RSC Advances, 2025).
Entries after “also recorded” stand apart in the source; their conditions may differ.

What was measured:
[1] = system: SARS-CoV-2 Delta variant (B.1.617.2); experiment: Virucidal assay against SARS-CoV-2; type: cell-based; conditions: for virucidal activity against SARS-CoV-2: in words
[2] = system: SARS-CoV-2 Delta variant (B.1.617.2); type: cell-based

C[C@H](CCC(=O)O)[C@H]1CC[C@H]2[C@@H]3[C@H](O)C[C@@H]4C[C@H](O)CC[C@]4(C)[C@H]3CC[C@]12C [CDCA (13), chenodeoxycholic acid]
virucidal activity against SARS-CoV-2 [1]: did not exhibit antiviral or virucidal activity | virucidal activity against SARS-CoV-2 [1]; 13: did not show activity | antiviral activity toward SARS-CoV-2 [2]: did not exhibit antiviral activity; also recorded: did not exhibit antiviral or virucidal activity

C[C@H](CCC(=O)O)[C@H]1CC[C@H]2[C@@H]3CC[C@@H]4C[C@H](O)CC[C@]4(C)[C@H]3C[C@H](O)[C@]12C [DCA (5), deoxycholic acid]
virucidal activity against SARS-CoV-2 [1]: did not exhibit antiviral or virucidal activity | virucidal activity against SARS-CoV-2 ([1]; listed as DCA, 5): did not show activity | antiviral activity toward SARS-CoV-2 [2]: did not exhibit antiviral activity; also recorded: did not exhibit antiviral or virucidal activity

C[C@H](CCC(=O)O)[C@H]1CC[C@H]2[C@@H]3CC[C@@H]4C[C@H](O)CC[C@]4(C)[C@H]3CC[C@]12C [LCA (1), lithocholic acid]
SI (selectivity index) ([1]; SI = CC50/EC50, virucidal assay): >5.16 | antiviral activity toward SARS-CoV-2 [2]: did not exhibit antiviral activity

C[C@H](CCC(=O)O)[C@H]1CC[C@H]2[C@@H]3[C@@H](O)C[C@@H]4C[C@H](O)CC[C@]4(C)[C@H]3CC[C@]12C [UDCA (9), ursodeoxycholic acid]
virucidal activity against SARS-CoV-2 [1]: did not exhibit antiviral or virucidal activity | virucidal activity against SARS-CoV-2 [1]; 9: did not show activity | antiviral activity toward SARS-CoV-2 [2]: did not exhibit antiviral activity; also recorded: did not exhibit antiviral or virucidal activity

C[C@H](CCC(=O)[O-])[C@H]1CC[C@H]2[C@@H]3CC[C@@H]4C[C@H](O)CC[C@]4(C)[C@H]3CC[C@]12C.C[N+](C)(C)CCO [[LCA][Z] (4)]
virucidal activity, times lower than the free acid LCA (1) ([1]; ratio of EC50 values): 3.27 times
